# Tests used:
# ALOX AP = ALOX AP mRNA levels in hemin-treated primary cortical neurons (RT-PCR); format: cell-based, mouse; conditions: NAC 1 mM
# Protocol: Quantitative real-time PCR: Total RNA was prepared using a NucleoSpin® RNA II kit. Duplex real-time PCR reactions were performed with gene expression assays using 6-carboxyfluorescein-labeled probes for ALOX5 (Mm 01182747_m1) and ALOX5AP (Mm 01218551_m1). Expression levels were normalized to β-actin gene expression levels, which were determined with a VIC™-labeled probe. All experiments were performed using a real-time PCR system.
# The abilities of hemin and NAC to induce increases in ALOX5 and ALOX AP mRNA levels were examined. […] Consistent with the protein data (FIG. 17), hemin induced increases in ALOX AP and ALOX5 mRNA levels in a time-dependent manner.
# lipid protein adducts = assay: Hemin-induced lipid protein adduct formation (Bt-AA, streptavidin-HRP Western blot) in primary neurons; format: cell-based, mouse
# Protocol: Electrophilic attack by ALOX5 products could alter cellular protein-mediated signaling to trigger cell death. Arachidonic acid (AA) tagged with biotin (Bt-AA) was used to monitor the formation of covalent protein adducts. To test whether hemin was sufficient to catalyze the formation of protein-reactive lipid species, primary neurons were treated with hemin at concentrations of 5 μM-50 μM for 4 h. Lipid protein adducts were detected by Western blots probed with Streptavidin-HRP. Bt-AA incorporation into protein increased with increasing concentrations of hemin, and significant lipid protein adducts were detected at 50 μM hemin. […] The blot is representative from replicates of three experiments. The arrow indicates the decrease in lipid protein adduct formation.
# [1] = Total iron levels in brain of ICH mice by X-ray fluorescence; format: in vivo, mouse; conditions: 7 days
# Source text: In vivo metal distribution imaging analysis by X-ray fluorescence: Seven days following collagenase-induced ICH, mice were euthanized and perfused with trace metal-free PBS. The brains were removed from the mice and flash frozen. Tissue samples were cut into 20 μm-thick sections and deposited onto 4 μm-thick Ultralene® films. The iron and zinc contents of the tissue samples were imaged using X-ray fluorescence microscopy (XFM). X-ray fluorescence spectra were collected using an X-ray excitation energy of 11 keV and a beam size of 9 μm (vertical)×17 μm (horizontal) in 15-μm steps, with an integration time of 7 sec/pixel. The intensity for each metal was quantified by integrating the area under the curve for the respective peak in the XRF spectrum (iron Kα=6405 eV and zinc Kα=8637 eV).
# National Institute of Standards and Technology thin film standard reference materials 1832 and 1833 were used to calculate concentrations and to normalize for any differences between the multiple beam time runs required to collect the data. Molar concentrations were determined by dividing the […] values by the product of the volume of X-ray beam on the sample (area×thickness of the sample), the density of tissue (estimated to be 0.9 g/cm^3), and the molecular weight of the element.
# The ability of NAC to affect total metal levels in the brain was evaluated. […]
# total glutathione [2] = assay: Total glutathione levels in striatum of collagenase-infused ICH mice by HPLC; format: in vivo, mouse; conditions: ICH mice after NAC treatment
# Source text: Total glutathione levels were unchanged after NAC treatment in ICH mice. […] FIG. 29 illustrates an experimental design to study the effect of NAC on total glutathione levels in the striatum of a collagenase infusion mouse model of ICH.
# total glutathione [3] = assay: Total glutathione levels in neurons by HPLC; format: cell-based, mouse; conditions: 0.1 or 1.0 mM NAC, presence or absence of hemin
# Source text: Cysteine is the rate-limiting precursor for the synthesis of glutathione with γ-glutamylcysteine synthetase and glutathione synthetase. NAC undergoes hydrolysis to liberate cysteine, which is transported by the alanine-serine cysteine (ASC) system. To determine whether NAC-induced protection from heme requires glutathione, glutathione synthesis was inhibited using buthionine sulfoximine (BSO), a selective inhibitor of γ-glutamylcysteine synthetase, the rate limiting step in glutathione synthesis. The necessity of a NAC-induced increase in glutathione, and whether NAC-induced protection could be abrogated were evaluated. A reduction in glutathione levels was measured using HPLC. […] In the presence of hemin, the absolute levels of glutathione were reduced. […] Significance was determined by two-way ANOVA followed by Bonferroni's comparison test, from three independent experiments.
structure (smiles),measurement,setting,value
"CC(=O)N[C@@H](CS)C(=O)O [NAC, N-acetylcysteine]",Hemin-induced ALOX AP expression,ALOX AP,blocked the expression of ALOX AP
same,AA-protein adduct formation,"lipid protein adducts; non-protective doses: NAC 0.1 mM, vitamin E 1 μM, zileuton 1 μM",did not decrease AA-protein adduct formation
same,Lipid protein adduct formation,"lipid protein adducts; protective doses: NAC 1 mM, vitamin E 10 μM, zileuton 10 μM",decreased lipid protein adduct formation
same,Iron levels and iron distribution in brain following ICH,[1],no effect on iron levels or iron distribution
same,Total glutathione levels in striatum,total glutathione [2],unchanged
same,Total glutathione levels in neurons,total glutathione [3],dose-dependently increased the total glutathione levels
